The record followed here is ChEMBL document CHEMBL5335863, “Design, Synthesis, and Evaluation of 8-(o-Tolyl)quinazoline Derivatives as Small-Molecule PD-1/PD-L1 Antagonists” (ACS Med Chem Lett, 2024).

T1 sequence (Q15116 whole entry): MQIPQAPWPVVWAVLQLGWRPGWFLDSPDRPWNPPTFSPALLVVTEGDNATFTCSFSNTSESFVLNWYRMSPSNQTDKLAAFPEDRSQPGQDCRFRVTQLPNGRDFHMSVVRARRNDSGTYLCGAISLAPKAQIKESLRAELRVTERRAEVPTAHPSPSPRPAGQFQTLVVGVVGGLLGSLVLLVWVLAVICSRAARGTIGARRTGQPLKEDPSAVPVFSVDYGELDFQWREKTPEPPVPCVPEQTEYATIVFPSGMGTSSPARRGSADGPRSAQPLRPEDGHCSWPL
T1 sequence (Q9NZQ7 whole entry): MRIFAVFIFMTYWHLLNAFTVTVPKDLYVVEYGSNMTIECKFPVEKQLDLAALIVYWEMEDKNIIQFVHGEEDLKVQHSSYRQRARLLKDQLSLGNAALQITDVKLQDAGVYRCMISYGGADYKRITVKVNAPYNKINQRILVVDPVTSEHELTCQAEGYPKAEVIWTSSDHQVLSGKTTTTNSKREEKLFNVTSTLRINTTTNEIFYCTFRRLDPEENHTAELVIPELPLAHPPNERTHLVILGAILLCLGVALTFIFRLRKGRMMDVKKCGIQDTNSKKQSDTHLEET

The subject of the first data set is Jurkat. Put plainly: Cytotoxicity against human Jurkat cells assessed as reduction in cell viability at 3.3 uM incubated for 48 hrs by CCK-8 assay. It counts as toxicity, cell-based.
Conditions: not given
On to `Cc1c(COc2cc(OCc3cccc(C#N)c3)c(CNC[C@@H](O)CO)cc2Cl)cccc1-c1cccc2c(Oc3cc(OCc4cccc(C#N)c4)c(CNC[C@@H](O)CO)cc3Cl)ncnc12`, for which the Activity entry is “Non-Toxic”.

Another data set has as its target T1, Programmed cell death protein 1/Programmed cell death 1 ligand 1 (Homo sapiens, UniProt Q15116+Q9NZQ7). Put plainly: Inhibition of PD-1/PD-L1 interaction in co-culture of Jurkat-NFAT-PD-1 cells expressing PD-1 and reporter gene and Hep3B-OS8-hPD-L1 cells expressing OS-8 and human PD-L1 assessed as increase in luminescence intensity incubated for 6 hrs by luminometry. Particulars: dose 0.4-1.11 µM.
As to `Cc1c(COc2cc(OCc3cccc(C#N)c3)c(CNC[C@@H](O)CO)cc2Cl)cccc1-c1cccc2c(Oc3cc(OCc4cccc(C#N)c4)c(CNC[C@@H](O)CO)cc3Cl)ncnc12`, the inhibition entry is “Dose-Dependent Effect”.

For the next data set, the target named is T1, Programmed cell death protein 1/Programmed cell death 1 ligand 1. Put plainly: Inhibition of PD-1/PD-L1 interaction (unknown origin) incubated for 60 min by HTRF assay. It is filed as protein-complex assay.
Conditions: not given
`Cc1c(COc2cc(OCc3cccc(C#N)c3)c(CNC3CCCCC3)cc2Cl)cccc1-c1cccc2c(Oc3cc(OCc4cccc(C#N)c4)c(CNC4CCCCC4)cc3Cl)ncnc12`: the IC50 (commonly the point on the concentration scale where inhibition reaches its midpoint) worked out at 167 nM.

Take `COCCNCc1cc(Cl)c(OCc2cccc(-c3cccc4c(Oc5cc(OCc6cccc(C#N)c6)c(CNCCOC)cc5Cl)ncnc34)c2C)cc1OCc1cccc(C#N)c1`: the IC50 amounted to 101 nM.

Consider `Cc1c(COc2cc(OCc3cccc(C#N)c3)c(CNC3CC3)cc2Cl)cccc1-c1cccc2c(Oc3cc(OCc4cccc(C#N)c4)c(CNC4CC4)cc3Cl)ncnc12`, for which the 50% inhibitory concentration (IC50) was determined as 390 nM. The same measure, in the same setting: the same measure for `Cc1c(COc2cc(OCc3cccc(C#N)c3)c(CNC(C)C)cc2Cl)cccc1-c1cccc2c(Oc3cc(OCc4cccc(C#N)c4)c(CNC(C)C)cc3Cl)ncnc12`: 51.5 nM; for `Cc1c(COc2cc(OCc3cccc(C#N)c3)c(CNC[C@@H](O)CO)cc2Cl)cccc1-c1cccc2c(Oc3cc(OCc4cccc(C#N)c4)c(CNC[C@@H](O)CO)cc3Cl)ncnc12`: 23.8 nM. Same read-out and setting: the same measure for `Cc1c(COc2cc(OCc3cccc(C#N)c3)c(CN(C)CCO)cc2Cl)cccc1-c1cccc2c(Oc3cc(OCc4cccc(C#N)c4)c(CN(C)CCO)cc3Cl)ncnc12`: 44.8 nM; for `Cc1c(COc2cc(OCc3cccc(C#N)c3)c(CN3CCC(O)CC3)cc2Cl)cccc1-c1cccc2c(Oc3cc(OCc4cccc(C#N)c4)c(CN4CCC(O)CC4)cc3Cl)ncnc12`: 75.8 nM; for `Cc1c(COc2cc(OCc3cccc(C#N)c3)c(CNC[C@H](O)CO)cc2Cl)cccc1-c1cccc2c(Oc3cc(OCc4cccc(C#N)c4)c(CNC[C@H](O)CO)cc3Cl)ncnc12`: 33.9 nM.

`Cc1c(COc2cc(OCc3cccc(C#N)c3)c(CNC(C)(CO)CO)cc2Cl)cccc1-c1cccc2c(Oc3cc(OCc4cccc(C#N)c4)c(CNC(C)(CO)CO)cc3Cl)ncnc12` registered an IC50 of 30.2 nM. Still for that read-out and setting: the same measure for `Cc1c(COc2cc(OCc3cccc(C#N)c3)c(CN3CC[C@@H](O)C3)cc2Cl)cccc1-c1cccc2c(Oc3cc(OCc4cccc(C#N)c4)c(CN4CC[C@@H](O)C4)cc3Cl)ncnc12`: 46.2 nM. `Cc1c(COc2cc(OCc3cccc(C#N)c3)c(CNC(CO)CO)cc2Cl)cccc1-c1cccc2c(Oc3cc(OCc4cccc(C#N)c4)c(CNC(CO)CO)cc3Cl)ncnc12` gave a half-inhibitory concentration (IC50) of 47.2 nM. The same measure, in the same setting: the same measure for `Cc1c(COc2cc(OCc3cccc(C#N)c3)c(CNCCO)cc2Cl)cccc1-c1cccc2c(Oc3cc(OCc4cccc(C#N)c4)c(CNCCO)cc3Cl)ncnc12`: 37.7 nM; for `Cc1c(Nc2nccc3cc(CN4CC[C@H](O)C4)cnc23)cccc1-c1cccc(-c2nc3cc(CN4CC[C@H](C(=O)O)C4)cc(C#N)c3o2)c1C`: 12.1 nM. `Cc1c(COc2cc(OCc3cccc(C#N)c3)c(CNC(CO)(CO)CO)cc2Cl)cccc1-c1cccc2c(Oc3cc(OCc4cccc(C#N)c4)c(CNC(CO)(CO)CO)cc3Cl)ncnc12` gave a concentration for half-maximal inhibition (IC50) of 25.3 nM. On the same count and under the same terms, the same measure for `CC(CO)(CO)NCc1cc(Cl)c(Oc2ncnc3c(-c4ccc5c(c4)OCCO5)cccc23)cc1OCc1cccc(C#N)c1`: 40.8 nM. Still for that read-out and setting: the same measure for `Cc1c(COc2cc(OCc3cccc(C#N)c3)c(CNC3CCOCC3)cc2Cl)cccc1-c1cccc2c(Oc3cc(OCc4cccc(C#N)c4)c(CNC4CCOCC4)cc3Cl)ncnc12`: 59.7 nM; for `Cc1c(COc2cc(OCc3cccc(C#N)c3)c(CN3CC[C@H](O)C3)cc2Cl)cccc1-c1cccc2c(Oc3cc(OCc4cccc(C#N)c4)c(CN4CC[C@H](O)C4)cc3Cl)ncnc12`: 55.5 nM. Same read-out and setting: the same measure for `Cc1c(COc2cc(OCc3cccc(C#N)c3)c(C=O)cc2Cl)cccc1-c1cccc2c(Oc3cc(OCc4cccc(C#N)c4)c(C=O)cc3Cl)ncnc12`: over 1000 nM; for `Cc1c(COc2cc(OCc3cccc(C#N)c3)c(CNC3CCC3)cc2Cl)cccc1-c1cccc2c(Oc3cc(OCc4cccc(C#N)c4)c(CNC4CCC4)cc3Cl)ncnc12`: 105 nM. Consider `Cc1c(COc2cc(OCc3cccc(C#N)c3)c(CO)cc2Cl)cccc1-c1cccc2c(Oc3cc(OCc4cccc(C#N)c4)c(CO)cc3Cl)ncnc12`, for which the IC50 was over 1000 nM. The same measure, in the same setting: the same measure for `Cc1c(COc2cc(OCc3cccc(C#N)c3)c(CNC3CCCC3)cc2Cl)cccc1-c1cccc2c(Oc3cc(OCc4cccc(C#N)c4)c(CNC4CCCC4)cc3Cl)ncnc12`: 112 nM. The same measure, in the same setting: the same measure for `CC(=O)NCCNCc1cc(Cl)c(OCc2cccc(-c3cccc4c(Oc5cc(OCc6cccc(C#N)c6)c(CNCCNC(C)=O)cc5Cl)ncnc34)c2C)cc1OCc1cccc(C#N)c1`: 61.4 nM; for `CCNCc1cc(Cl)c(OCc2cccc(-c3cccc4c(Oc5cc(OCc6cccc(C#N)c6)c(CNCC)cc5Cl)ncnc34)c2C)cc1OCc1cccc(C#N)c1`: 48.5 nM.
